Assay results: BindingDB's records for doi:10.1021/acs.jmedchem.0c00961 (Rheinische Friedrich-Wilhelms-University Bonn, 2020)

Tests used:
[1] = Inhibition of human ABCG2-mediated multidrug resistance in MDCK2 cells assessed as potentiation of SN-38-induced cytotoxicity by measuring half maximal reversal concentration after 72 hrs by MTT assay
[2] = Inhibition of human ABCC1-mediated multidrug resistance in MDCK2 cells assessed as potentiation of doxorubicin-induced cytotoxicity by measuring half maximal reversal concentration after 72 hrs by MTT assay
[3] = Inhibition of human ABCB1-mediated multidrug resistance in human A2780/ADR cells assessed as potentiation of doxorubicin-induced cytotoxicity by measuring half maximal reversal concentration after 72 hrs by MTT assay

Row | Compound | EC50 [1] [nM] | EC50 [2] [nM] | EC50 [3] [nM]
1 | Cc1cc(Nc2ccc(F)c(C#N)c2)nc(-c2ccccc2)n1 | 21 | – | –
2 | Cc1cc(Nc2ccc3ncccc3c2)nc(-c2ccccc2)n1 | 16 | 5150 | 8410
3 | Cc1cc(Nc2ccc(C#N)c(C)c2)nc(-c2ccccc2)n1 | 11 | – | –
4 | Cc1cc(Nc2ccc(C#N)c(Br)c2)nc(-c2ccccc2)n1 | 15 | – | –
5 | Cc1cc(Nc2ccc([N+](=O)[O-])cc2)nc(-c2ccccc2)n1 | 16 | – | –
6 | Cc1cc(Nc2ccc(C#N)c(C(F)(F)F)c2)nc(-c2ccccc2)n1 | 15 | – | –
